For eight compounds, GI50 and TGI results are on record in PubChem BioAssay (NCI).

Among the test systems are RXF 393 renal; MDA-MB-435; CAKI-1 renal; SR leukemia; MALME-3M melanoma; OVCAR-8 ovarian; NCI-H522 lung; K-562 leukemia; HCT-116 colon; MOLT-4 leukemia.
What all share (assay): DTP human tumour cell line panel, 48 h

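Cells were grown in 96-well plates and exposed to each compound for 48 hours at five concentrations; endpoints were interpolated linearly between bracketing concentrations, or set to the highest concentration if not reached. Abbreviation: GI50, concentration required for 50% inhibition of growth. TGI denotes the concentration required for complete inhibition of growth.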 Where only a bound is given, the exact number is not on record here.

Usually GI50 stands for the concentration at which growth is held to half of that of the control. Broadly, the TGI is the concentration giving total growth inhibition. Low readings indicate more potent growth arrest, high ones less potent growth arrest. On to `O=c1oc2c(cc1-c1ccccc1)C(O)Oc1ccccc1-2` (centres undefined), for which the GI50 in the assay with RXF 393 renal is 2.42 µM; with MDA-MB-435 it was 1.62 µM; in the assay on CAKI-1 renal it was 5.09 µM; with SR leukemia, 2.89 µM; with MALME-3M melanoma it was 9.19 µM; in the assay on OVCAR-8 ovarian it was 6.89 µM. Further, the GI50 with NCI-H522 lung was 4.97 µM; with K-562 leukemia, 4.27 µM; with HCT-116 colon, 3.9 µM. Also, the total growth inhibition concentration (TGI) is 6.41 µM with RXF 393 renal; greater than 100 µM in the assay with MDA-MB-435; greater than 100 µM in the assay with CAKI-1 renal; 13.7 µM in the assay on SR leukemia; 58.5 µM in the assay on MALME-3M melanoma; greater than 100 µM in the assay on OVCAR-8 ovarian. Further, the concentration for total growth inhibition (TGI) in the assay on NCI-H522 lung was 21.2 µM; in the assay with K-562 leukemia it was greater than 100 µM; with HCT-116 colon, 34.6 µM.
For `Oc1c(Cl)cc(CN(Cc2cc(Cl)c(O)c(Cl)c2)C2CCCCC2)cc1Cl`, the TGI with RXF 393 renal, with MDA-MB-435, in the assay on CAKI-1 renal, in the assay on SR leukemia, with MALME-3M melanoma and with MOLT-4 leukemia was greater than 100 µM in each case. Besides, the TGI in the assay on OVCAR-8 ovarian, in the assay with NCI-H522 lung, with K-562 leukemia and in the assay on HCT-116 colon was greater than 100 µM in each case.
Regarding `C[n+]1cc2cc3c(cc2c2ccccc21)OCO3`, the GI50 with RXF 393 renal was 16.4 µM; in the assay on MDA-MB-435, 5.32 µM; in the assay on CAKI-1 renal it was 46.4 µM; with SR leukemia it was 3.78 µM; in the assay with MALME-3M melanoma it was 1.86 µM; with MOLT-4 leukemia, 4.02 µM. Moreover, the GI50 with OVCAR-8 ovarian is 3.04 µM; in the assay with NCI-H522 lung it was 2.17 µM; in the assay with K-562 leukemia it was 7.24 µM; with HCT-116 colon, 3.58 µM. For the same compound, the TGI in the assay on RXF 393 renal is greater than 100 µM; in the assay on MDA-MB-435, 21 µM; in the assay on CAKI-1 renal, greater than 100 µM; with SR leukemia, greater than 100 µM; in the assay with MALME-3M melanoma, 5.16 µM; in the assay on MOLT-4 leukemia, greater than 100 µM. Further, the TGI in the assay on OVCAR-8 ovarian is 30.5 µM; in the assay with NCI-H522 lung, 6.23 µM; with K-562 leukemia it was greater than 100 µM; in the assay with HCT-116 colon it was greater than 100 µM.
On to `CC(=O)Oc1ccccc1C(=O)NCCC[Se]C#N`, for which the GI50 with RXF 393 renal was 2.67 µM; in the assay on MDA-MB-435, 2.19 µM; in the assay on CAKI-1 renal, 1.97 µM; in the assay with SR leukemia it was 2.02 µM; with MALME-3M melanoma, 1.72 µM; in the assay on MOLT-4 leukemia, 2.46 µM. Besides, the GI50 in the assay on OVCAR-8 ovarian is 1.95 µM; in the assay on NCI-H522 lung, 1.62 µM; with K-562 leukemia it was 3.46 µM; in the assay on HCT-116 colon, 1.87 µM. In addition, the TGI with RXF 393 renal stood at 6.7 µM; with MDA-MB-435 it was 5.16 µM; in the assay with CAKI-1 renal, 3.94 µM; with SR leukemia, 9.4 µM; in the assay with MALME-3M melanoma it was 3.62 µM; with MOLT-4 leukemia, 8.53 µM. Moreover, the TGI is 4.1 µM with OVCAR-8 ovarian, 3.5 µM in the assay on NCI-H522 lung, 21.1 µM with K-562 leukemia and 5.03 µM in the assay on HCT-116 colon.
With `CC(=O)N1N=C(c2ccc(Nc3nc(Nc4ccc(F)cc4)nc(Nc4ccc(Cl)cc4)n3)cc2)CC1c1ccc(N(C)C)cc1` (centres undefined), the GI50 is 1.63 µM in the assay on RXF 393 renal; 5.68 µM in the assay with MDA-MB-435; 9.28 µM in the assay with CAKI-1 renal; 2.1 µM in the assay on SR leukemia; 4.78 µM in the assay with MALME-3M melanoma; 4.2 µM with MOLT-4 leukemia. Further, the GI50 in the assay on OVCAR-8 ovarian is 3.75 µM; with NCI-H522 lung it was 3.79 µM; in the assay on K-562 leukemia, greater than 32.4 µM; with HCT-116 colon, 2.42 µM. Also, the TGI with RXF 393 renal is 5.33 µM; in the assay on MDA-MB-435 it was 20.9 µM; in the assay with CAKI-1 renal it was greater than 54.3 µM; in the assay on SR leukemia it was 5.18 µM; in the assay on MALME-3M melanoma it was 23.8 µM; in the assay with MOLT-4 leukemia it was 30.9 µM. Moreover, the TGI is 23.4 µM in the assay with OVCAR-8 ovarian, greater than 58.3 µM in the assay with NCI-H522 lung, greater than 81.9 µM in the assay on K-562 leukemia and 10.1 µM in the assay with HCT-116 colon.
`CCOC(=O)Nc1ccc(C(=O)/C=C/c2ccccc2)cc1`: the GI50 with RXF 393 renal was 22.5 µM; in the assay on MDA-MB-435, 5.13 µM; in the assay with CAKI-1 renal, 79 µM; with SR leukemia, 3.68 µM; with MALME-3M melanoma it was 77.4 µM; in the assay with MOLT-4 leukemia, 27.9 µM. The GI50 in the assay on OVCAR-8 ovarian was 33.5 µM; with NCI-H522 lung it was 20.9 µM; in the assay on K-562 leukemia it was 8.28 µM; in the assay with HCT-116 colon, 3.31 µM. Moreover, the TGI in the assay with RXF 393 renal is 49.1 µM; in the assay with MDA-MB-435, greater than 100 µM; in the assay with CAKI-1 renal, greater than 100 µM; with SR leukemia, greater than 100 µM; with MALME-3M melanoma, greater than 100 µM; in the assay on MOLT-4 leukemia it was greater than 100 µM. The TGI was greater than 100 µM in the assay on OVCAR-8 ovarian, 79.8 µM in the assay on NCI-H522 lung, greater than 100 µM in the assay with K-562 leukemia and 11.4 µM in the assay with HCT-116 colon.
With `O=C(NCCNC(=O)c1ccc(F)cc1)Nc1ccc(-n2cc(-c3ccncc3)c(-c3ccc(Cl)c(O)c3)n2)cc1`, the GI50 in the assay with RXF 393 renal was 0.288 µM; in the assay with MDA-MB-435 it was 0.189 µM; in the assay with SR leukemia it was 0.299 µM; in the assay on MALME-3M melanoma, 0.714 µM; with MOLT-4 leukemia it was 0.356 µM; in the assay on OVCAR-8 ovarian it was 0.491 µM. Moreover, the results for the GI50 with NCI-H522 lung and with HCT-116 colon were 0.306 µM and 0.338 µM, respectively. Besides, the TGI in the assay with RXF 393 renal was 3.69 µM; in the assay with MDA-MB-435, 0.577 µM; in the assay on SR leukemia, 2.62 µM; in the assay with MALME-3M melanoma, 2.43 µM; with MOLT-4 leukemia, 3.54 µM; in the assay with OVCAR-8 ovarian it was greater than 100 µM. Moreover, the TGI in the assay with NCI-H522 lung is 2.94 µM; with HCT-116 colon, 1.56 µM.
On to `Oc1cc2c(cc1C(c1ccc3c(c1)OCO3)N1CCN(C(c3ccc4c(c3)OCO4)c3cc4c(cc3O)OCO4)CC1)OCO2` (centres undefined), for which the TGI is greater than 100 µM with RXF 393 renal; 35 µM in the assay on MDA-MB-435; 47.9 µM with CAKI-1 renal; 14.6 µM with SR leukemia; 38.9 µM with MALME-3M melanoma; 28.4 µM with MOLT-4 leukemia. The TGI in the assay on OVCAR-8 ovarian is 29.9 µM; in the assay on NCI-H522 lung it was 33.5 µM; with K-562 leukemia it was 65.1 µM; with HCT-116 colon, 29.1 µM.
